Read-outs that look alike come from different tables or passages of the source. Where only a bound is given, the exact number is not on record here.

In one experiment the target is T1, marmoset 17β-HSD1 (Callithrix jacchus, UniProt Q9GME2).
T1 construct: For the partial purification of 17β-HSD1, the cytosolic fraction was precipitated with ammonium sulfate; from tissue; host or cells: marmoset placenta, cytosolic fraction, ammonium sulfate precipitate
T1 sequence (Q9GME2 1-314): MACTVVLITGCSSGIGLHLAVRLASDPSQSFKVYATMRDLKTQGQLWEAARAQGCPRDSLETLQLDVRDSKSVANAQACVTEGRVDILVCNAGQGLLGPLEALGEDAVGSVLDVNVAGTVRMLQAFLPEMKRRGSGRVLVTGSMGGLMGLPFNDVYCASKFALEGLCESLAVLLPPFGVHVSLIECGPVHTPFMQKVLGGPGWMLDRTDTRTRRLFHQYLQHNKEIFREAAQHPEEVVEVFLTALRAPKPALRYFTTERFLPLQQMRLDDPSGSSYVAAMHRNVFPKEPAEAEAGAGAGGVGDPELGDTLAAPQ
In words: Inhibition of marmoset 17β-HSD1 (placental cytosolic fraction, tritiated E1, HPLC). It counts as biochemical, marmoset monkey (callithrix jacchus). As to conditions: for IC50: read-out: Marmoset IC50 17ß-HSD1. The procedure:
(§1) Marmoset placental tissue was used as enzyme source and the proteins were partially purified following a described procedure. Tritiated E1 was incubated with 17β-HSD1, cofactor and inhibitor. The separation of substrate and product was performed by HPLC. In an assay similar to the 17β-HSD1 test, marmoset placental microsomes containing 17β-HSD2 were incubated with tritiated E2 in the presence of NAD^+ and inhibitor. Labelled product was quantified after HPLC separation.
(§2) [2, 4, 6, 7-^3H]-E1 and [2, 4, 6, 7-^3H]-E2 were bought from Perkin Elmer, Boston. Quickszint Flow 302 scintillator fluid was bought from Zinsser Analytic, Frankfurt. Marmoset 17β-HSD1 and 17β-HSD2 were obtained from marmoset placenta according to previously described procedures. Fresh marmoset placenta was homogenized and cytosolic and microsomal fractions were separated by centrifugation. For the partial purification of 17β-HSD1, the cytosolic fraction was precipitated with ammonium sulfate. 17β-HSD2 was obtained from the microsomal fraction.
Inhibitory activities were evaluated by an established method with minor modifications. Briefly, the enzyme preparation was incubated with NADH [500 µM] in the presence of potential inhibitors at 37°C in a phosphate buffer (50 mM) supplemented with 20% of glycerol and EDTA (1 mM). Inhibitor stock solutions were prepared in DMSO. The final concentration of DMSO was adjusted to 1% in all samples. The enzymatic reaction was started by addition of a mixture of unlabelled- and [2, 4, 6, 7-^3H]-E1 (final concentration: 500 nM, 0.15 µCi). After 10 min, the reaction was stopped by the addition of HgCl2 (10 mM) and the mixture was extracted with diethylether. After evaporation, the steroids were dissolved in acetonitrile. E1 and E2 were separated using acetonitrile/water (45∶55) as mobile phase in a C18 reverse phase chromatography column (Nucleodur C18 Gravity, 3 µm, Macherey-Nagel, Düren) connected to an HPLC-system (Agilent 1200 Series, Agilent Technologies, Waldbronn). Detection and quantification of the steroids were performed using a radioflow detector (Agilent 1200 Series, Agilent Technologies, Waldbronn). The conversion rate was calculated after analysis of the resulting chromatograms according to the following equation: [drawing 1] . Each value was calculated from at least three independent experiments.

The target in another experiment is marmoset 17β-HSD2 (Callithrix jacchus, UniProt U3BEV1). In words: Inhibition of marmoset 17β-HSD2 (placental microsomes, tritiated E2, HPLC). It counts as biochemical, marmoset monkey (callithrix jacchus). The note with it: Logit transformed values calculated from % inhibition at 50 nM inhibitor concentration (trend for <30% or >70%), placental microsomal fraction, substrate E2 500 nM, NAD+ 1500 µM; for IC50: read-out: Marmoset IC50 17ß-HSD2. The procedure: as §1, §2
The 17β-HSD2 inhibition assay was performed similarly to the 17β-HSD1 procedure. The microsomal fraction was incubated with NAD^+ [1500 µM], test compound and a mixture of unlabelled- and [2, 4, 6, 7-^3H]-E2 (final concentration: 500 nM, 0.11 µCi) for 20 min at 37°C. Further treatment of the samples and HPLC separation was carried out as mentioned above. The conversion rate was calculated after analysis of the resulting chromatograms according to the following equation: [drawing 2] .

The next experiment deals with human 17β-HSD1. Set-up: method as in earlier work. As to conditions: Human placental, cytosolic fraction, substrate E1, 500 nM, cofactor NADH, 500 µM; ref literature (references indicated with the structural formulas in Fig. 3); read-out: Human IC50 17ß-HSD1; cited from earlier work.
Another experiment relates to human 17β-HSD2. Details: method as in earlier work. As to conditions: Human placental, microsomal fraction, substrate E2, 500 nM, cofactor NAD+, 1500 µM; ref literature (references indicated with the structural formulas in Fig. 3); read-out: Human IC50 17ß-HSD2; cited from earlier work.
Setting [1] is: Logit transformed values calculated from % inhibition at 50 nM inhibitor concentration (trend for <30% or >70%), placental cytosolic fraction, substrate E1 500 nM, NADH 500 µM.
Where [2] appears, read: Logit transformed values calculated from % inhibition, inhibitor concentration: 5 nM, placental cytosolic fraction, substrate E1 500 nM, NADH 500 µM.

Sequence of marmoset 17β-HSD2 (U3BEV1 entry or part of it): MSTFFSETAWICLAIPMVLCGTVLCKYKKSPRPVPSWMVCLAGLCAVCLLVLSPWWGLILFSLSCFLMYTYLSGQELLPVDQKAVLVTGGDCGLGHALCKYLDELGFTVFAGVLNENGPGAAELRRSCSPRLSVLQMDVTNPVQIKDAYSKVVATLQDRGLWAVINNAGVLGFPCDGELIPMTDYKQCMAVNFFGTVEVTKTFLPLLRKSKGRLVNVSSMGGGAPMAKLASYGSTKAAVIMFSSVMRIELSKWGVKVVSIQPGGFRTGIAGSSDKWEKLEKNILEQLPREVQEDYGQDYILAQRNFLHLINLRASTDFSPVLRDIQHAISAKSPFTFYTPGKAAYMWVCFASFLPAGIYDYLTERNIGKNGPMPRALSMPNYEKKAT

With `Oc1ccc(-c2cnc(-c3cccc(O)c3)s2)cc1` [Compound 2], the IC50 on marmoset 17β-HSD1 (setting [1]) was 102 nM; at marmoset 17β-HSD2 it was more than 50 nM; in the experiment on human 17β-HSD1 it was 50 nM; with human 17β-HSD2, 4000 nM.
Take `Oc1cccc(-c2ccc3cc(O)ccc3c2)c1` [Compound 14]: the 50% inhibitory concentration (IC50) on marmoset 17β-HSD1 was more than 50 nM; in the experiment on human 17β-HSD1, 116 nM; with human 17β-HSD2, 5640 nM.
Consider `Cc1cc(-c2ccc(-c3cccc(O)c3)s2)ccc1O` [Compound 4], for which the half-maximal inhibitory concentration (IC50) was less than 50 nM at marmoset 17β-HSD1 (setting [1]), more than 50 nM on marmoset 17β-HSD2, 46 nM in the experiment on human 17β-HSD1 and 1970 nM with human 17β-HSD2.
As to `CS(=O)(=O)Nc1cccc(-c2c(O)ccc3cc(-c4cccc(O)c4)ccc23)c1` [Compound 19], the IC50 at marmoset 17β-HSD1 (setting [1]) was more than 50 nM; on marmoset 17β-HSD2, more than 50 nM; with human 17β-HSD1, 15 nM; with human 17β-HSD2, 403 nM.
Regarding `Oc1ccc(-c2ccc(-c3cccc(O)c3)s2)cc1` [Compound 3], the IC50 at marmoset 17β-HSD1 (setting [1]) is 31 nM; on marmoset 17β-HSD2, more than 50 nM; in the experiment on human 17β-HSD1, 69 nM; with human 17β-HSD2, 1950 nM.
As to `CC(=O)Nc1cccc(-c2c(O)ccc3cc(-c4cccc(O)c4)ccc23)c1` [Compound 20], the results for the half-inhibitory concentration (IC50) at marmoset 17β-HSD1 (setting [1]), with human 17β-HSD1 and in the experiment with human 17β-HSD2 were more than 50 nM, 83 nM and 1240 nM, respectively. In addition, the “Marmoset IC50 17ß-HSD2” value at marmoset 17β-HSD2 is “n.i”.
`Oc1cccc(-c2ccc3c(-c4ccccc4)c(O)ccc3c2)c1` [Compound 17]: the 50% inhibitory concentration (IC50) was 52 nM at marmoset 17β-HSD1 (setting [1]), more than 50 nM on marmoset 17β-HSD2, 20 nM in the experiment on human 17β-HSD1 and 540 nM with human 17β-HSD2.
For `Oc1cccc(-c2ccc(-c3ccc(O)c(F)c3)s2)c1` [Compound 1], the IC50 at marmoset 17β-HSD1 (setting [2]) is less than 5 nM; at marmoset 17β-HSD2 it was more than 50 nM; in the experiment on human 17β-HSD1, 8 nM; in the experiment on human 17β-HSD2, 940 nM.
For the molecule `Oc1ccc(-c2ccc(-c3cc(O)cc(F)c3)s2)cc1` [Compound 6], the half-inhibitory concentration (IC50) was less than 5 nM on marmoset 17β-HSD1 (setting [2]), 85 nM at marmoset 17β-HSD2, 42 nM in the experiment with human 17β-HSD1 and 463 nM with human 17β-HSD2.
Take `Oc1cc(F)cc(-c2ccc(-c3ccc(O)c(F)c3)s2)c1` [Compound 7]: the IC50 on marmoset 17β-HSD1 (setting [2]) is less than 5 nM; at marmoset 17β-HSD2, 43 nM; in the experiment with human 17β-HSD1, 17 nM; with human 17β-HSD2, 218 nM.
On to `Oc1cccc(-c2ccc3c(-c4cccnc4)c(O)ccc3c2)c1` [Compound 16], for which the IC50 at marmoset 17β-HSD1 (setting [1]) is more than 50 nM; on marmoset 17β-HSD2 it was more than 50 nM; in the experiment on human 17β-HSD1, 26 nM; with human 17β-HSD2, 1160 nM.
In the case of `O=C(c1cccc(O)c1)c1ccc(-c2ccc(O)cc2)s1` [Compound 12], the 50% inhibitory concentration (IC50) on marmoset 17β-HSD1 (setting [1]) was less than 50 nM; at marmoset 17β-HSD2 it was 43 nM; in the experiment with human 17β-HSD1 it was 33 nM; in the experiment on human 17β-HSD2, 478 nM. Further, the “Inhibitory potency toward marmoset 17β-HSD1 compared to the human enzyme” value on marmoset 17β-HSD1 (comparison in words, marmoset vs human 17β-HSD1) is “Comparable inhibition data”.
Regarding `Oc1cccc(-c2ccc3c(-c4cccc(O)c4)c(O)ccc3c2)c1` [Compound 15], the IC50 at marmoset 17β-HSD1 (setting [1]) is 32 nM; at marmoset 17β-HSD2, more than 50 nM; with human 17β-HSD1, 36 nM; with human 17β-HSD2, 959 nM.
As to `Cc1cc(-c2cnc(-c3cccc(O)c3)s2)ccc1O` [Compound 5], the half-inhibitory concentration (IC50) is less than 50 nM on marmoset 17β-HSD1 (setting [1]), more than 50 nM on marmoset 17β-HSD2, 143 nM in the experiment with human 17β-HSD1 and 2020 nM in the experiment on human 17β-HSD2.
For `Nc1cccc(-c2c(O)ccc3cc(-c4cccc(O)c4)ccc23)c1` [Compound 18], at marmoset 17β-HSD1 (setting [1]), the “Marmoset IC50 17ß-HSD1” value is on record as “n.i”. Further, the IC50 on marmoset 17β-HSD2 was more than 50 nM; in the experiment on human 17β-HSD1, 53 nM.

In general, IC50 refers to the concentration needed to halve the response being measured.

Values taken from article PMC3153478, “Structural Basis for Species Specific Inhibition of 17β-Hydroxysteroid Dehydrogenase Type 1 (17β-HSD1): Computational Study and Biological Validation” (PLoS ONE, 2011).
